Test results: PMC10857906, “PROTAC-mediated NR4A1 degradation as a novel strategy for cancer immunotherapy” (The Journal of Experimental Medicine, 2024)

How the values were obtained:
NR4A1 [1] = biological target: T1, NR4A1 (Homo sapiens, UniProt P22736); experiment: NR4A1 degradation in CHL-1 human melanoma cells (immunoblotting); assay type: cell-based; details: CHL-1 cells
T1 construct: NR-V04 effectively promoted the degradation of NR4A1 in two human melanoma cell lines within 16 h; endogenous in cells; host or cells: CHL-1, A375, WM164, M229 human melanoma cells
T1 sequence (P22736 whole entry): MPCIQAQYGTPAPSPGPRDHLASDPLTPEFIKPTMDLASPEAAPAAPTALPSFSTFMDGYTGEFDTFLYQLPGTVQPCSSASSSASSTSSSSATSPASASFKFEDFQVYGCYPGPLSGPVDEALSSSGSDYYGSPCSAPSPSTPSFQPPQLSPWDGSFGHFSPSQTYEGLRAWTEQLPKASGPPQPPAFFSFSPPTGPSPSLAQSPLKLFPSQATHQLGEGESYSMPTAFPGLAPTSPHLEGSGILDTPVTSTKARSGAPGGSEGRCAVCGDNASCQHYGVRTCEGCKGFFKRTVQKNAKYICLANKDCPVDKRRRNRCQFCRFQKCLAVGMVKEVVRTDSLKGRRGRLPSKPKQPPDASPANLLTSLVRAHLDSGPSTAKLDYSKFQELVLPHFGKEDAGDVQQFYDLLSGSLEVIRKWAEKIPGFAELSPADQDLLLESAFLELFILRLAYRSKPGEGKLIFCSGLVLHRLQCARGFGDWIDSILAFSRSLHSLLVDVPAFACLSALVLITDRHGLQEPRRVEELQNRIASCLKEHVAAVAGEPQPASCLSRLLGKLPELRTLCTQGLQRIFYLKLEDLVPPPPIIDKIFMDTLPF
Experimental: Human melanoma cell lines: A375 and CHL-1 (gifts from Dr. D. Zhou, the University of Texas Health Science Center, San Antonio, TX, USA) were cultured in Dulbecco’s Modified Eagles’ Medium (DMEM, D5796; Sigma-Aldrich), WM164 and M229 (gifts from Dr. K.S.M. Smalley’s lab) were cultured in RPMI-1640 (R8758; Sigma-Aldrich). Mouse melanoma cell lines: B16F10 (CRL-6475, ATCC) was cultured in DMEM, SW1 and SM1 (gift from Dr. K.S.M. Smalley, Moffitt Cancer Center, Tampa, FL, USA) were cultured in RPMI. Human epithelial kidney cell lines: HEK293T (293T, CRL-3216; ATCC) and Vhl-KO-293T (gift from Dr. D. Zhou, the University of Texas Health Science Center, San Antonio, TX, USA) were cultured in DMEM. Mouse colon cancer cell lines: MC38 (ENH204-FP; Kerafast Inc.) was cultured in DMEM supplemented with 1 mM glutamine, […] non-essential amino acids (11140050; Thermo Fisher Scientific), 1 mM sodium pyruvate (11360070; Thermo Fisher Scientific), and 10 mM HEPES (15630080; Thermo Fisher Scientific). All cell culturing media were supplemented with 10% fetal bovine serum (FBS, F2442; Sigma-Aldrich), 100 U/ml penicillin, and 100 µg/ml streptomycin (P4333; Sigma-Aldrich).
(§1) Samples were lysed using radioimmunoprecipitation assay buffer (RIPA) lysis buffer (150 mM NaCl, 5 mM EDTA, 50 mM Tris pH 8.0, 0.5% sodium deoxycholate, 1% NP-40, 0.1% SDS) supplemented with 1 mM dithiothreitol and protease inhibitors. The lysates were separated by SDS-PAGE and analyzed using standard western blotting procedures ([Khan et al., 2019]). Antibodies: human NR4A1 (ab153914, 1:1,000; Abcam), mouse NR4A1 (14-5965-82, 1:1,000; Invitrogen), NR4A2 (AV38753, 1:1,000; Sigma-Aldrich), NR4A3 (TA804893, 1: 1,000; Thermo Fisher Scientific), VHL (68547, 1:1,000; Cell Signaling), β-actin (13E5, 1:5,000; Cell Signaling), β-tubulin (9F3, 1: 5,000; Cell Signaling), and GAPDH (D16H11, 1: 5,000; Cell Signaling) were employed for protein detection.

NR4A2 = biological target: T2, NR4A2 (Homo sapiens, UniProt P43354); experiment: NR4A2 protein level after treatment (immunoblotting); assay type: cell-based
T2 construct: endogenous in cells
T2 sequence (P43354 whole entry): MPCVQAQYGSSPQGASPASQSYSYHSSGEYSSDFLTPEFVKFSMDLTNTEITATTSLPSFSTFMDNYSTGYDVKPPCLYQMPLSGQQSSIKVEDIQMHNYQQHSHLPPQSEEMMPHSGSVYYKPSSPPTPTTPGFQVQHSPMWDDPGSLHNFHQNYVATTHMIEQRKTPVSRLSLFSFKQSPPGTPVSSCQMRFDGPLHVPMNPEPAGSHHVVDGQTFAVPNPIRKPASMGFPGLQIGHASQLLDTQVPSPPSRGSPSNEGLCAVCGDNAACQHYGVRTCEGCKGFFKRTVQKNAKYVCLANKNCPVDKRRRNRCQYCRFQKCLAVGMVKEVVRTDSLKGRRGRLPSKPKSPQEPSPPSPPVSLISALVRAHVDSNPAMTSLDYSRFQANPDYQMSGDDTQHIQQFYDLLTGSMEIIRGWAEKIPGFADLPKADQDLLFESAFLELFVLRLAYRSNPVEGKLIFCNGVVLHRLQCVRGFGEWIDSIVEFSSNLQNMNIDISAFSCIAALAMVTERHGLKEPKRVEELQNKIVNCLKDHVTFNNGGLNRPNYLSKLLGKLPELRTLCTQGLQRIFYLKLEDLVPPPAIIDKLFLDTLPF
Experimental: as §1

MC38 tumors = experiment: MC38 colon cancer syngeneic tumor model; assay type: in vivo, mouse
Source text: (§2) 7–9-wk-old C57BL/6J, B6.129S2-Ighm^tm1Cgn/J (002288), B6.129S2-Nr4a1^tm1Jmi/J (NR4A1^−/−, 006187), and NOD-SCID interleukin-2 receptor gamma null (NSG) mice were purchased from Jackson Laboratories. For all studies involving NR-V04 and celastrol, the compounds were formulated in 50% phosal PG, 45% miglyol 810N, and 5% polysorbate 80 and administered via i.p. injection.
(§3) For syngeneic tumor models, 5 × 10^5 cells MC38, Yumm1.7, and Yummer1.7, 1 × 10^5 cells of B16F10 were resuspended in PBS and implanted into 7–9-wk-old mice subcutaneously. For the tumor inhibition experiment, mice were treated with 1.8 mg/kg NR-V04 or 0.75 mg/kg celastrol by i.p. injection twice weekly. For the immune profile experiment, once tumors reached 0.5 cm in diameter, mice were treated with 1.8 mg/kg NR-V04 by i.p. injection twice weekly. For the toxicity experiment, male and female non-tumor-bearing mice were treated with 2 mg/kg NR-V04 for two doses in the first week and 5 mg/kg for another two doses in the second week. Blood samples were taken from the submandibular (facial) vein before each treatment and 42 days later for hematological analysis, and body weight was measured twice per week up to day 42. Mice were euthanized in accordance with the IACUC protocol once the largest tumors reached 2 cm in diameter, and tissues were collected for further analysis.

NR4A1 [2] = biological target: T3, NR4A1 (Mus musculus, UniProt P12813); experiment: PD: NR4A1 degradation in MC38 tumors in mice (immunoblotting); assay type: in vivo
T3 construct: from tissue; host or cells: MC38 tumours in mice (tumour lysates)
T3 sequence (P12813 whole entry): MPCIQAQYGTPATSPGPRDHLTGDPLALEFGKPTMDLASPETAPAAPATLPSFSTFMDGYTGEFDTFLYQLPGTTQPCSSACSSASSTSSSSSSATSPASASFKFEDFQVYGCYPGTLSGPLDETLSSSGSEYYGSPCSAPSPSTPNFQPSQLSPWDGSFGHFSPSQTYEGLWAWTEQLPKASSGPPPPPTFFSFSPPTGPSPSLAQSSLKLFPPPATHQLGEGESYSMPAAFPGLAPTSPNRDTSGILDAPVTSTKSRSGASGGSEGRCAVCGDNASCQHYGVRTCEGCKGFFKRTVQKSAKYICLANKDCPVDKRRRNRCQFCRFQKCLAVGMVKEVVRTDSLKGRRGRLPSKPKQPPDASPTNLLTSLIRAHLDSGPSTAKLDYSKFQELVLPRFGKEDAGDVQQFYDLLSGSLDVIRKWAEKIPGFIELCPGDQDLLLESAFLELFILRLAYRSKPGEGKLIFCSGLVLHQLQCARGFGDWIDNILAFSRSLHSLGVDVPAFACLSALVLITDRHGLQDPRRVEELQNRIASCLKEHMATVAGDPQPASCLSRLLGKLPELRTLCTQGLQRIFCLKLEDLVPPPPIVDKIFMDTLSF
Experimental: as §1
7–9-wk-old C57BL/6J, B6.129S2-Ighm^tm1Cgn/J (002288), B6.129S2-Nr4a1^tm1Jmi/J (NR4A1^−/−, 006187), and NOD-SCID interleukin-2 receptor gamma null (NSG) mice were purchased from Jackson Laboratories. […]
For syngeneic tumor models, 5 × 10^5 cells MC38, Yumm1.7, and Yummer1.7, 1 × 10^5 cells of B16F10 were resuspended in PBS and implanted into 7–9-wk-old mice subcutaneously. […] Blood samples were taken from the submandibular (facial) vein before each treatment and 42 days later for hematological analysis, and body weight was measured twice per week up to day 42. […]

Yumm1.7 tumors = experiment: Yumm1.7 melanoma syngeneic tumor model; assay type: in vivo, mouse; details: Yumm1.7 (low immunogenicity), 1.8 mg/kg
Source text: as §2, §3

For `CC1=C(O)C(=O)C=C2C1=CC=C1[C@@]2(C)CC[C@@]2(C)[C@@H]3C[C@](C)(C(=O)NCCOCCOCCOCCOCC(=O)N[C@H](C(=O)N4C[C@H](O)C[C@H]4C(=O)N[C@@H](C)c4ccc(-c5scnc5C)cc4)C(C)(C)C)CC[C@]3(C)CC[C@]12C` [NR-V04], the “NR4A1 protein level, initial screening” value (NR4A1 [1]; 250 nM, 16 h, immunoblotting and densitometry) was “highest potency in reducing the protein level of NR4A1”, the “NR4A1 protein level with proteasome inhibitor MG132 pretreatment” value (NR4A1 [1]; 0.5 μM MG132 10 min, then 500 nM NR-V04 16 h) was “effectively rescued the NR4A1 protein level” and the “NR4A1 protein level at early time point” value (NR4A1 [1]; 500 nM, 4 h) was “initial induction of NR4A1 protein”. For the same molecule, the “NR4A1 degradation with VHL ligand VHL-032 pretreatment” value (NR4A1 [1]; 10 µM VHL 032 10 min, then 500 nM NR-V04 16 h) was “prevented”, the DC50 (NR4A1 [1]; 16 h treatment, read-out: 50% degradation concentration (DC50) of NR4A1) was 229 nM and the “NR4A2 protein level (selectivity in the NR4A family)” value (NR4A2) was “sparing NR4A2 and NR4A3”. The tumor growth (MC38 tumors; MC38 in NSG mice, 1.8 mg/kg i.p.) was “failed to inhibit tumor growth”, the tumor growth (MC38 tumors; MC38 in WT mice, 1.8 mg/kg NR-V04 or 0.75 mg/kg celastrol i.p. twice a week from day 7) was “effectively inhibited tumor growth” and the “CD8^+ Texh cells in vivo” value (MC38 tumors; MC38 tumors) was “did not observe a significant decrease in CD8^+ Texh cells”. For the same molecule, the “NR4A1 protein in MC38 tumors at termination” value (NR4A1 [2]; 8 doses for 4 wk, 1.8 mg/kg NR-V04 or 0.75 mg/kg celastrol, every 4 days) was “almost completely degraded”, the “NR4A1 degradation in MC38 tumors” value (NR4A1 [2]; two doses of 1.8 mg/kg i.p., tumors collected 1-4 days after the last treatment) was “significant degradation of NR4A1 starting from day 1 and persisting for 3 days” and the tumor growth (Yumm1.7 tumors) was “no tumor inhibitory effect”.
